Converted amounts (≈) assume the structure as drawn.
Tested on: Candida albicans ATCC 10231
Test: Minimum inhibitory concentration (MIC) by broth microdilution method
Format: cell-based
Conditions: for MIC value: broth microdilution in MH broth, 37° C., 12 hours, OD600, MIC = lowest concentration that inhibited the growth of more than 90% of the strains; for activity against Candida albicans (in words): summary statement of the MIC experiments
Method: The minimum inhibitory concentration (MIC) values of echinocandin E and echinocandin F were determined by broth microdilution method, and the test strain was Candida albicans ATCC 10231. The MIC value was defined as the lowest antibiotic concentration that inhibited the growth of more than 90% of the strains. Amphotericin B was used as a positive control and echinocandin B as a reference, and each sample was subjected to three parallel experiments.
Candida albicans was cultured in Mueller-Hinton (MH) broth (50 mL 20× Nitrate Salts, 1 mL Trace Elements, and 10.0 g glucose, dissolved in 800 mL ddH2O, adjusted to pH 6.5, fixed to 1 L, added with 16.0 g agar powder, and sterilized at 121° C. for 20 min) (purchased from Hangzhou Basebio Biotechnology Co., Ltd. (Basebio)) and cultured at 37° C. and 180 rpm for 12-16 hours. The fungal solution concentration was controlled to […] by gradient dilution with MH broth.
The sample solution was prepared by dissolving the test samples (amphotericin B, echinocandin B, echinocandin E, echinocandin F) in DMSO to prepare a stock solution with a concentration of 40 μg/ml. An appropriate amount of sterile MH broth medium and the test compounds were added to a 96-well plate, and Candida albicans was quantitatively inoculated so that the total liquid volume in each well was 100 μL. The final concentrations of the compounds were 2, 1.5, 1, 0.8, 0.6, 0.4, 0.2, 0.1, 0.05 and 0 μg/ml, respectively, and DMSO (volume concentration of 5%) was used as a negative control.
The fungal concentration was measured at OD600 using an ELISA reader to determine the MIC value of each sample.

Row | Molecule | MIC value [µg/mL] | activity against Candida albicans (in words)
1 | C[C@@H]1[C@H](O)[C@@H](C)/C=C/C=C/C=C/C=C/C=C/C=C/C=C/[C@H](O[C@@H]2O[C@H](C)[C@@H](O)[C@H](N)[C@@H]2O)C[C@@H]2O[C@](O)(C[C@@H](O)C[C@@H](O)[C@H](O)CC[C@@H](O)C[C@@H](O)CC(=O)O[C@H]1C)C[C@H](O)[C@H]2C(=O)O [Amphotericin B, reference compound] | 0.2 (≈ 0.216 µM) | –
2 | echinocandin B [reference compound] | 0.4 | –
3 | echinocandin E | 0.6 | good activity
4 | echinocandin F | 1.0 | good activity
5 | echinocandin G | 0.8 | good activity
6 | echinocandin H | 0.8 | good activity
